Data set [1] deals with respiratory syncytial virus Long strain. The data set can be described thus: Antiviral activity against respiratory syncytial virus in HEp-2 cells (MTT cell protection). Type of data set: cell-based. How it is done: The antiviral activity of these compounds against respiratory syncytial virus was determined in HEp-2 (ATCC CCL 23) cells that were seeded in 96 well microtiter plates at 1.5×10^4 cells/100 μL/well in DMEM (Dulbecco's Modified Eagle's Medium) supplemented with penicillin, streptomycin, glutamine, and 10% fetal bovine serum. The cells were incubated overnight at 37° C., the culture medium was removed, and cells were infected (100 μL volume in medium containing 2% fetal bovine serum) with respiratory syncytial virus Long strain at 5000 plaque forming units/mL. The compounds, 100 μL at appropriate dilution, were added to the cells 1 hour post infection. After incubation for 4 days at 37° C., the plates were stained with MTT solution (3-[4,5-dimethlythiazol-2-yl]-2,5-diphenyltetrazolium bromide) and incubated for 4 hours at 37° C. The media was aspirated from the cells and 100 μL/well of acidified isopropanol (per liter: 900 mL isopropanol, 100 mL Triton×100, and 4 mL conc. HCl) was added. Plates were incubated for 15 minutes at room temperature with shaking, and an optical density (OD 540) reading at 540 nanometer (nm) was obtained. The optical density reading is proportional to the number of viable cells. The increase in the number of viable cells reflects the protective, antiviral activity of the compound. […]

As to `O=c1[nH]c2ccccc2n1Cc1nc2ccccc2n1CCn1cnnn1` [Compound 184], the melting point (as a rule, the temperature of the solid-liquid transition) is above 200 °C.

The compound `NC(=O)c1ncn([C@@H]2O[C@H](CO)[C@@H](O)[C@H]2O)n1` [Ribavirin] returned a cell protection in data set [1] (at 2.5 μg/mL (corresponding to 10.2 μM), HEp-2 cells, RSV Long strain) of 100%. In data set [1] (human respiratory syncytial virus, HEp-2 cells infected with RSV Long strain, compound added 1 hour post infection, 4 days, read-out: EC50 (concentration that produces 50% cell protection)), the EC50 turned out to be 3 µM.

Source of the values: patent US6506738B1, “Benzimidazolone antiviral agents” (Bristol-Myers Squibb Company, priority 2000, dated 2003).
